Assay results reported in patent US6492344B1, “Syndecan enhancer element and syndecan stimulation of cellular differentiation” (Biotie Therapies Corp., priority 1993, dated 2002).
Entries after “also recorded” stand apart in the source; their conditions may differ.

Columns and labels:
[1] = system: syndecan-1 enhancer element (pXb6); assay: CAT reporter assay of syndecan upstream fragment pXb6 in 3T3 NIH cells; assay type: cell-based, mouse; settings: 3T3NIH cells transiently transfected; FGF-2 alone
Excerpt: Determination of Mouse Syndecan Promoter and Enhancer Activities. The mouse syndecan-1 gene has been cloned and characterized up to −10 kbs upstream from the transcription start site. To determine the specific activities of different proximal promoter regions (up to −2 kbs from the start site) and enhancer regions (from −2 to −10 kbs) we have made plasmid constructs in which these regions were cloned into pCAT basic or pCAT promoter vectors, containing the CAT reporter gene. The reporter CAT gene produces the enzyme chloramphenicol acetyltransferase, which transfers the n-butyryl moiety of n-butyryl CoA to chloramphenicol. […]
The plasmid constructs were transiently transfected into eukaryotic cells by calcium phosphate precipitation simultaneously with a β-Galactosidase expressing vector to determine transfection efficiency. […] This was incubated from 2 hours to overnight and the color reaction was measured spectrophotometrically at 420 nm.
CAT activity was determined by adding 0.25 M Tris buffer, 25 ng n-butyryl CoA and 0.0626 μCi of ^14C-chloramphenicol to the cytoplasmic extract. Samples were incubated overnight, extracted with xylene and the radioactivity present was measured by scintillation counting. CAT activity was corrected for transfection efficiency as determined by assays of β-galactosidase activity. […]

syndecan-1 gene = assay: Syndecan-1 mRNA quantification in 3T3NIH cells exposed to FGF-2; assay type: cell-based, mouse; settings: 3T3NIH cells, 10 ng/ml FGF-2
Excerpt: Northern Blot—RNA was isolated from 3T3 and NMuMG cells using 4 M guanidine isothiocyanate and CsCl density centrifugation (Chirgwin et al., Biochemistry 18:5294-5299 (1979)). RNA samples were size-separated on a 1% agarose formaldehyde gel, transferred to a GeneScreen Plus™ membrane (New England Nuclear) and hybridized with a multi-prime (Amersham) labeled partial cDNA clone for mouse syndecan (PM-4) (Saunders et al., J. Cell Biol. 108:1547-1556 (1989)). After hybridization, the membrane was washed in 2×SSC and 1.0% SDS at 65° C. (high stringency conditions). For rehybridization with glyceraldehyde-3-phosphate-dehydrogenase (GAPDH; Fort et al., Nucleic Acid Res. 13:1431-1442 (1985)), the bound PM-4 probe was removed as recommended by the manufacturer of the filter (NEN).
Following incubation with FGF-2, syndecan MRNA was isolated and quantified. Control incubations without FGF-2 were also performed. Syndecan mRNA was isolated and quantified […] FGF-2 treatment following 6, 12, and 24 hr incubations. The quantification of syndecan mRNA production can be seen in FIG. 11a. GAPDH mRNA was used as a loading control. […] The enhancement appears to be maximal at about 6 hrs of FGF-2 incubation, and decreases thereafter. In the Figure, two individual exposures for each time point are presented.

[2] = system: FGF-inducible Response Element (FiRE); assay: pFiRE CAT reporter in syndecan-1 transfected 3T3 cells (3T3 1.5); assay type: cell-based, mouse; settings: 3T3 1.5 cells expressing high levels of syndecan-1, versus wild type 3T3
Excerpt: The Enhancer is Not Functional in 3T3 Cells Expressing High Levels of Syndecan-1. Syndecan-1 transfected 3T3 cells (3T3 1.5) and wild type 3T3 cells were transiently transfected with the pFiRE construct, treated with FGF or a negative control, and analyzed for reporter gene (CAT) expression. The results are depicted in FIG. 16. The closed columns indicate relative CAT activity in control cells (without FGF treatment) while the labeled columns depict relative CAT activity in FGF-treated cells.

[3] = system: FGF-inducible Response Element (FiRE); assay: FiRE / Syn Prom CAT reporter in MCA3D keratinocytes; assay type: cell-based; settings: MCA3D mouse keratinocytes transfected with FiRE construct
Experimental: The cells used for proximal promoter constructs were 3T3 NIH, S115 (either hormone-treated or not) and nMuMG cells. For enhancer constructs we used 3T3 NIH cells grown in 2% CMS medium and MCA 3D cells grown in Ham's medium. 3T3 NIH cells were also used to test the effect of growth factors in 2% CMS medium with 10 ng/ml FGF-2 and 2ng/ml TGFβ-1. MCA 3D cells were used to test the effect of 10 ng/ml KGF.
FiRE is Induced Selectively by FGF-7 in Keratinocytes. The ability of FiRE to enhance transcription was tested in the mouse keratinocyte cell line MCA3D (Kuliz-Martin et al., Carcinogenesis 4:1367-1377 (1983)). MCA3D cells were transfected as described supra for mouse NIH3T3 cells. Following transfection, the cells were treated with fetal calf serum, PDGF, FGF-1, FGF-2, and FGF-7 as described supra for the NIH3T3 cells.

## FGF-2: Basic fibroblast growth factor (FGF-2 or bFGF); recombinant human
[1]
  CAT gene expression from plasmid pXb6: increase in CAT gene expression
syndecan-1 gene
  time of maximal enhancement of syndecan mRNA: about 6 hrs
syndecan-1 gene; after 4 hrs
  syndecan mRNA expression: significantly enhanced (several fold)
[2]
  activation of CAT expression from pFiRE: significantly reduced
[3]
  FiRE activation: failed to activate FiRE; also recorded: only slightly activated FiRE
